Laboratory results from the supplement of paper PMC10307832.

Experiments:
Test in all cases: relative viability (nuclei count vs DMSO), 5 days (fraction); higher = more cells survive
201T = system: 201T
Method in brief: (§1)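 One day after seeding in 1536-well plates, lung cancer cell lines were dosed by pin tool. Dosing was either single-drug or a fixed anchor-drug dose plus five library-drug doses (not always all listed) in √10 steps. After 5 days, nuclei were stained in one fix-and-stain step and counted on 4× images, and relative viability is the nuclei count of treated wells over that of vehicle wells, given as the median of duplicate plates.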

BEN = system: BEN
Method in brief: as §1

EMC-BAC-2 = system: EMC-BAC-2
Method in brief: as §1

HARA = system: HARA
Method in brief: as §1

LCLC-103H = system: LCLC-103H
Method in brief: as §1

LOU-NH91 = system: LOU-NH91
Method in brief: as §1

NCI-H1395 = system: NCI-H1395
Method in brief: as §1

NCI-H1993 = system: NCI-H1993
Method in brief: as §1

NCI-H2023 = system: NCI-H2023
Method in brief: as §1

NCI-H2087 = system: NCI-H2087
Method in brief: as §1

NCI-H2126 = system: NCI-H2126
Method in brief: as §1

NCI-H2347 = system: NCI-H2347
Method in brief: as §1

NCI-H23 = system: NCI-H23
Method in brief: as §1

NCI-H3122 = system: NCI-H3122
Method in brief: as §1

NCI-H441 = system: NCI-H441
Method in brief: as §1

NCI-H522 = system: NCI-H522
Method in brief: as §1

NCI-H596 = system: NCI-H596
Method in brief: as §1

NCI-H647 = system: NCI-H647
Method in brief: as §1

NCI-H650 = system: NCI-H650
Method in brief: as §1

NCI-H727 = system: NCI-H727
Method in brief: as §1

NCI-H838 = system: NCI-H838
Method in brief: as §1

O=c1cc(-c2cccc3c2Sc2ccccc2S3)oc(N2CCOCC2)c1 + Cc1nc(Nc2ncc(C(=O)Nc3c(C)cccc3Cl)s2)cc(N2CCN(CCO)CC2)n1 [Dasatinib] (partner 0.075 µM)
relative viability (201T; first compound 0.08 µM): 0.637
relative viability (201T; first compound 0.253 µM): 0.599
relative viability (201T; first compound 0.8 µM): 0.355
relative viability (201T; first compound 2.53 µM): 0.521
relative viability (201T; first compound 8 µM): 0.654
relative viability (BEN; first compound 0.08 µM): 0.284
relative viability (BEN; first compound 0.253 µM): 0.353
relative viability (BEN; first compound 0.8 µM): 0.284
relative viability (BEN; first compound 2.53 µM): 0.318
relative viability (BEN; first compound 8 µM): 0.351
relative viability (EMC-BAC-2; first compound 0.08 µM): 0.252
relative viability (EMC-BAC-2; first compound 0.253 µM): 0.368
relative viability (EMC-BAC-2; first compound 0.8 µM): 0.306
relative viability (EMC-BAC-2; first compound 2.53 µM): 0.303
relative viability (EMC-BAC-2; first compound 8 µM): 0.399
relative viability (HARA; first compound 0.08 µM): 0.294
relative viability (HARA; first compound 0.253 µM): 0.31
relative viability (HARA; first compound 0.8 µM): 0.234
relative viability (HARA; first compound 2.53 µM): 0.241
relative viability (HARA; first compound 8 µM): 0.377
relative viability (LCLC-103H; first compound 0.08 µM): 0.416
relative viability (LCLC-103H; first compound 0.253 µM): 0.503
relative viability (LCLC-103H; first compound 0.8 µM): 0.528
relative viability (LCLC-103H; first compound 2.53 µM): 0.439
relative viability (LCLC-103H; first compound 8 µM): 0.551
relative viability (LOU-NH91; first compound 0.08 µM): 0.589
relative viability (LOU-NH91; first compound 0.253 µM): 0.558
relative viability (LOU-NH91; first compound 0.8 µM): 0.523
relative viability (LOU-NH91; first compound 2.53 µM): 0.519
relative viability (LOU-NH91; first compound 8 µM): 0.559
relative viability (NCI-H1395; first compound 0.08 µM): 0.425
relative viability (NCI-H1395; first compound 0.253 µM): 0.366
relative viability (NCI-H1395; first compound 0.8 µM): 0.436
relative viability (NCI-H1395; first compound 2.53 µM): 0.338
relative viability (NCI-H1395; first compound 8 µM): 0.386
relative viability (NCI-H1993; first compound 0.08 µM): 0.519
relative viability (NCI-H1993; first compound 0.253 µM): 0.581
relative viability (NCI-H1993; first compound 0.8 µM): 0.544
relative viability (NCI-H1993; first compound 2.53 µM): 0.525
relative viability (NCI-H1993; first compound 8 µM): 0.56
relative viability (NCI-H2023; first compound 0.08 µM): 0.537
relative viability (NCI-H2023; first compound 0.253 µM): 0.679
relative viability (NCI-H2023; first compound 0.8 µM): 0.498
relative viability (NCI-H2023; first compound 2.53 µM): 0.48
relative viability (NCI-H2023; first compound 8 µM): 0.405
relative viability (NCI-H2087; first compound 0.08 µM): 0.787
relative viability (NCI-H2087; first compound 0.253 µM): 0.936
relative viability (NCI-H2087; first compound 0.8 µM): 0.943
relative viability (NCI-H2087; first compound 2.53 µM): 0.919
relative viability (NCI-H2087; first compound 8 µM): 0.699
relative viability (NCI-H2126; first compound 0.08 µM): 0.59
relative viability (NCI-H2126; first compound 0.253 µM): 0.456
relative viability (NCI-H2126; first compound 0.8 µM): 0.43
relative viability (NCI-H2126; first compound 2.53 µM): 0.534
relative viability (NCI-H2126; first compound 8 µM): 0.495
relative viability (NCI-H2347; first compound 0.08 µM): 0.298
relative viability (NCI-H2347; first compound 0.253 µM): 0.286
relative viability (NCI-H2347; first compound 0.8 µM): 0.296
relative viability (NCI-H2347; first compound 2.53 µM): 0.304
relative viability (NCI-H2347; first compound 8 µM): 0.298
relative viability (NCI-H23; first compound 0.08 µM): 0.721
relative viability (NCI-H23; first compound 0.253 µM): 0.716
relative viability (NCI-H23; first compound 0.8 µM): 0.783
relative viability (NCI-H23; first compound 2.53 µM): 0.702
relative viability (NCI-H23; first compound 8 µM): 0.86
relative viability (NCI-H3122; first compound 0.08 µM): 0.79
relative viability (NCI-H3122; first compound 0.253 µM): 0.787
relative viability (NCI-H3122; first compound 0.8 µM): 0.784
relative viability (NCI-H3122; first compound 2.53 µM): 0.828
relative viability (NCI-H3122; first compound 8 µM): 0.929
relative viability (NCI-H441; first compound 0.08 µM): 0.599
relative viability (NCI-H441; first compound 0.253 µM): 0.586
relative viability (NCI-H441; first compound 0.8 µM): 0.7
relative viability (NCI-H441; first compound 2.53 µM): 0.502
relative viability (NCI-H441; first compound 8 µM): 0.658
relative viability (NCI-H522; first compound 0.08 µM): 0.895
relative viability (NCI-H522; first compound 0.253 µM): 0.983
relative viability (NCI-H522; first compound 0.8 µM): 0.872
relative viability (NCI-H522; first compound 2.53 µM): 0.71
relative viability (NCI-H522; first compound 8 µM): 0.781
relative viability (NCI-H596; first compound 0.08 µM): 0.662
relative viability (NCI-H596; first compound 0.253 µM): 0.636
relative viability (NCI-H596; first compound 0.8 µM): 0.541
relative viability (NCI-H596; first compound 2.53 µM): 0.504
relative viability (NCI-H596; first compound 8 µM): 0.594
relative viability (NCI-H647; first compound 0.08 µM): 0.128
relative viability (NCI-H647; first compound 0.253 µM): 0.205
relative viability (NCI-H647; first compound 0.8 µM): 0.208
relative viability (NCI-H647; first compound 2.53 µM): 0.123
relative viability (NCI-H647; first compound 8 µM): 0.155
relative viability (NCI-H650; first compound 0.08 µM): 0.4
relative viability (NCI-H650; first compound 0.253 µM): 0.412
relative viability (NCI-H650; first compound 0.8 µM): 0.506
relative viability (NCI-H650; first compound 8 µM): 0.488
relative viability (NCI-H727; first compound 0.08 µM): 0.332
relative viability (NCI-H727; first compound 0.253 µM): 0.438
relative viability (NCI-H727; first compound 0.8 µM): 0.449
relative viability (NCI-H727; first compound 2.53 µM): 0.382
relative viability (NCI-H727; first compound 8 µM): 0.409
relative viability (NCI-H838; first compound 0.08 µM): 0.273
relative viability (NCI-H838; first compound 0.253 µM): 0.283
relative viability (NCI-H838; first compound 0.8 µM): 0.276
relative viability (NCI-H838; first compound 2.53 µM): 0.278
relative viability (NCI-H838; first compound 8 µM): 0.273
